# Data from publication PMC9995496, “A screen for MeCP2-TBL1 interaction inhibitors using a luminescence-based assay” (Scientific Reports, 2023).
# Structures can show the parent of a compound that is named as a salt. Numbered stars: 1 amine (or outer) side, 2 acyl side, 3 side chain; on linkers, the order of the positions; unused ones are H or OH. Bridge positions count the residues as written; N and C are the ends. Square brackets hold non-standard residues; d marks the D form. Peptide text beside a SMILES is read from it. I, II: the chains in the order shown. * marks the point of attachment. Actinocin(9to1) = Cc1c2oc3c(C)ccc(C(=O)[*:1])c3nc-2c(C(=O)[*:2])c(N)c1=O; NMeV = CN[C@H](C(=O)O)C(C)C; Cbz = O=C(OCc1ccccc1)*; Sar = CNCC(=O)O
# System: PRKACA-PRKAR2A interaction (SmBiT-PRKACA / LgBiT-PRKAR2A), protein kinase A
# Design: NanoLuc complementation counter-screen in cell extract, PRKACA with PRKAR2A, loss of luminescence, detects NanoLuc interference
# Conditions: 0.5 h, 20 µM; inhibitor
row,SMILES,Inh (PKA)
1,"CC(C)(O)/C=C/C(=O)[C@](C)(O)[C@H]1[C@H](O)C[C@@]2(C)[C@@H]3CC=C4[C@@H](C=C(O)C(=O)C4(C)C)[C@]3(C)C(=O)C[C@]12C [UM0141852:01, Cucurbitacin I]",-0.1004%

# Same assay, conditions: counter-screen for NanoLuc interference, 0.5 h, 20 µM, inhibitor, Inh (PKA)
row,Inh (PKA),SMILES
1,1.747%,"O=C(O)/C=C/c1ccc(Cn2ccnc2)cc1 [UM0141799:01, Ozagrel]"
2,3.817%,"O=C(/C=C/c1cccnc1)NCCCCC1CCN(C(=O)c2ccccc2)CC1 [UM0141821:01, FK866 (APO866)]"
3,-0.0222%,"Nc1nc2[nH]cc(CCc3ccc(C(=O)N[C@@H](CCC(=O)O)C(=O)O)cc3)c2c(=O)[nH]1 [UM0141829:01, Pemetrexed]"
4,0.7441%,"CC(=O)O[C@@]12CO[C@@H]1C[C@H](O)[C@@]1(C)C(=O)[C@H](O)C3=C(C)[C@@H](OC(=O)[C@H](O)[C@@H](NC(=O)OC(C)(C)C)c4ccccc4)C[C@@](O)([C@@H](OC(=O)c4ccccc4)[C@H]21)C3(C)C [UM0141830:01, Docetaxel]"

# Same assay, conditions: counter-screen for NanoLuc interference; 0.5 h, 20 µM; inhibitor
row,Inh (PKA),SMILES
1,10.77%,"COc1ccc(-c2nc3cc(C4=NNC(=O)CC4C)ccc3[nH]2)cc1 (centres unmarked) [UM0141796:01, Pimobendan]"
2,1.88%,"COc1ccc(-n2nc(C(N)=O)c3c2C(=O)N(c2ccc(N4CCCCC4=O)cc2)CC3)cc1 [UM0141797:01, Apixaban]"
3,0.03154%,"Oc1cc(O)c(Cl)cn1 [UM0141798:01, Gimeracil]"
4,15.63%,"O=C(O)Cn1nnc(-c2cc(N3CCC(Oc4cc(F)ccc4Br)CC3)no2)n1 [UM0141800:01, MK-8245]"
5,1.891%,"C[C@]12CC[C@H]3[C@@H](CC[C@@]45O[C@@H]4C(O)=C(C#N)C[C@]35C)[C@@H]1CC[C@@H]2O [UM0141801:01, Trilostane]"
6,2.023%,"C#CCC(Cc1cnc2nc(N)nc(N)c2n1)c1ccc(C(=O)N[C@@H](CCC(=O)O)C(=O)O)cc1 (some centres unmarked) [UM0141802:01, Pralatrexate]"
7,1.467%,"O=C(NNc1ccccc1)c1ccncc1 [UM0141803:01, PluriSIn #1 (NSC 14613)]"
8,2.161%,"O=C1CN2Cc3c(ccc(Cl)c3Cl)N=C2N1 [UM0141804:01, Anagrelide HCl]"
9,5.594%,"CC(C)C[C@@H](C(=O)N[C@H](C(=O)OC1CCCC1)c1ccccc1)[C@H](O)C(=O)NO [UM0141805:01, Tosedostat (CHR2797)]"
10,3.096%,"NS(=O)(=O)c1ccc(NC(=O)Nc2ccc(F)cc2)cc1 [UM0141807:01, U-104]"
11,0.4952%,"CC1(C)O[C@@H]2[C@@H](CO[C@@]3(COS(N)(=O)=O)OC(C)(C)O[C@@H]23)O1 [UM0141808:01, Topiramate]"
12,14.88%,"CC(C)n1c(/C=C/[C@@H](O)C[C@@H](O)CC(=O)O)c(-c2ccc(F)cc2)c2ccccc21 [UM0141809:01, Fluvastatin Sodium]"
13,2.611%,"C#CCN[C@@H]1CCc2ccccc21 [UM0141810:01, Rasagiline Mesylate]"
14,2.51%,"C[C@H](NCc1ccc(OCc2cccc(F)c2)cc1)C(N)=O [UM0141812:01, Safinamide Mesylate]"
15,0.8236%,"CC[C@H](C)C(=O)O[C@H]1C[C@H](O)C=C2C=C[C@H](C)[C@H](CC[C@@H](O)C[C@@H](O)CC(=O)O)[C@H]21 [UM0141813:01, Pravastatin sodium]"
16,-2.323%,"COc1cc(F)c(C(C)C)cc1-c1ccc(C(F)(F)F)cc1CN1C(=O)O[C@H](c2cc(C(F)(F)F)cc(C(F)(F)F)c2)[C@@H]1C [UM0141816:01, Anacetrapib (MK-0859)]"
17,16.33%,"CCC(CC)CC1(C(=O)Nc2ccccc2SC(=O)C(C)C)CCCCC1 [UM0141817:01, Dalcetrapib (JTT-705, RO4607381)]"
18,12.81%,"Cc1cc(C)c2c(c1)[C@@H](N(Cc1cc(C(F)(F)F)cc(C(F)(F)F)c1)c1nnn(C)n1)CCCN2C[C@H]1CC[C@H](C(=O)O)CC1 [UM0141818:01, Evacetrapib (LY2484595)]"
19,4.254%,"CCOC(=O)N1c2ccc(C(F)(F)F)cc2[C@@H](N(Cc2cc(C(F)(F)F)cc(C(F)(F)F)c2)C(=O)OC)C[C@H]1CC [UM0141819:01, Torcetrapib]"
20,11.04%,"NC(=O)N1CCC(CC(=O)N2CCC([C@H]3c4ncc(Br)cc4CCc4cc(Cl)cc(Br)c43)CC2)CC1 [UM0141820:01, Lonafarnib]"
21,32.88%,"O=C(Nc1ccccc1)Nc1ccc(-c2ccc(C(=O)[C@@H]3CCC[C@H]3C(=O)O)cc2)cc1 [UM0141822:01, A922500]"
22,63.96%,"Cc1ccc(C(=O)c2cc(O)c(O)c([N+](=O)[O-])c2)cc1 [UM0141823:01, Tolcapone]"
23,1.569%,"Nc1ncnc2c1C(=O)N(c1ccc([C@H]3CC[C@H](CC(=O)O)CC3)cc1)CCO2 [UM0141824:01, PF-04620110]"
24,30.75%,"CC(C)c1cc(-c2n[nH]c(=O)n2-c2ccc3c(ccn3C)c2)c(O)cc1O [UM0141825:01, Ganetespib (STA-9090)]"

row,Inh (PKA),SMILES
1,1.652%,"CN(NC(=O)CC(=O)NN(C)C(=S)c1ccccc1)C(=S)c1ccccc1 [UM0141826:01, Elesclomol (STA-4783)]"
2,36.57%,"N#Cc1ccc(COC[C@H]2O[C@@H](n3c(NCc4ccc(Cl)c(Cl)c4)nc4c(N)ncnc43)[C@H](O)[C@@H]2O)cc1 [UM0141827:01, VER 155008]"
3,5.956%,"CC[C@@H](C)Nc1cc(C(=O)N[C@H]2C[C@H]3CC[C@@H](C2)N3c2ccc(C(=O)C3CC3)cn2)c(C)cc1C(N)=O [UM0141828:01, XL-888]"
4,0.06739%,"CO[C@@H]1[C@H](OC(=O)/C=C/C=C/C=C/C=C/C(=O)O)CC[C@]2(CO2)[C@H]1[C@@]1(C)O[C@@H]1CC=C(C)C [UM0141832:01, Fumagillin]"
5,3.195%,"CC(C)[C@H](NC(=O)OCc1ccccc1)C(=O)N[C@H](C=O)Cc1ccccc1 [UM0141833:01, MDL 28170] (Cbz-Val-Phe-aldehyde)"
6,-0.6384%,"N#Cc1ccc(NCCNCC(=O)N2CCC[C@H]2C#N)nc1 [UM0141834:01, NVP DPP 728 dihydrochloride]"
7,18.44%,"COc1ccc(CCc2nc3cc(-c4c(C)noc4C)ccc3n2C[C@H](C)N2CCOCC2)cc1Cl [UM0141843:01, SGC-CBP30]"
8,2.048%,"CC(=O)SCC(=O)c1ccc(NS(=O)(=O)c2ccc(OCCCN(C)C)cc2)nc1 [UM0141844:01, KD 5170]"
9,-1.396%,"Cc1cc(C)cc(C(=O)NOCCCCCC(=O)NO)c1 [UM0141845:01, LMK 235]"
10,6.356%,"Cc1ccc(NC(=O)CCCCCC(=O)Nc2ccccc2N)cc1 [UM0141846:01, TC-H 106]"
11,3.563%,"COc1cc2c(NC3CCN(C)CC3)nc(N3CCCN(C)CC3)nc2cc1OCCCN(C)C [UM0141847:01, UNC 0224]"
12,19.45%,"O=S(=O)(NCCSSCCNS(=O)(=O)c1cc(Cl)ccc1Cl)c1cc(Cl)ccc1Cl [UM0141849:01, KC7F2]"
13,8.312%,"C=CC(=O)c1ccc2ccccc2c1 [UM0141853:01, ZM 449829]"
14,47.09%,"N#Cc1c(-c2ccccc2)cc(-c2cc(Br)ccc2O)[nH]c1=O [UM0141854:01, TCS PIM-1 1]"
15,17.99%,"COc1ccc(-n2c(SCCCN3C(=O)c4cccc5cccc(c45)C3=O)nnc2-c2ccncc2)cc1 [UM0141857:01, WIKI4]"
16,56.23%,"O=C(/C=C/c1ccccc1)NC(NC(=S)Nc1ccc(Cl)cc1)C(Cl)(Cl)Cl (centres unmarked) [UM0141858:01, Sal 003]"
17,48.34%,"O=S(=O)(O)c1ccc2cc(N=Nc3cc(S(=O)(=O)O)c4cccnc4c3O)ccc2c1 [UM0141859:01, NSC 87877]"
18,6.685%,"OC[C@H]1O[C@@H](c2ccc(Cl)c(Cc3ccc(O[C@H]4CCOC4)cc3)c2)[C@H](O)[C@@H](O)[C@@H]1O [UM0141860:01, Empagliflozin (BI 10773)]"
19,38.44%,"CC1(C)CNc2cc(NC(=O)c3cccnc3NCc3ccncc3)ccc21 [UM0141862:01, Motesanib Diphosphate (AMG-706)]"
20,12.69%,"CC(C)(C)c1cc(C(C)(C)C)c(NC(=O)c2c[nH]c3ccccc3c2=O)cc1O [UM0141863:01, Ivacaftor (VX-770)]"
21,3.817%,"OCCn1cc(-c2ccc3c(c2)CC/C3=N\O)c(-c2ccncc2)n1 [UM0141866:01, GDC-0879]"
22,29.62%,"CCn1c(-c2nonc2N)nc2c(C#CC(C)(C)O)ncc(OC[C@H]3CCCNC3)c21 [UM0141867:01, GSK690693]"
23,1.476%,"COc1ccc(-c2ccc3c(N4CCOCC4)nc(N4C[C@@H](C)O[C@@H](C)C4)nc3n2)cc1CO [UM0141868:01, KU-0063794]"

row,SMILES,Inh (PKA)
1,"CCc1c(C(=O)C(N)=O)c2c(OCC(=O)O)cccc2n1Cc1ccccc1 [UM0141806:01, Varespladib (LY315920)]",1.134%
2,"NC(=O)c1cccc(-c2cccc(OC(=O)NC3CCCCC3)c2)c1 [UM0141814:01, URB597]",16.26%
3,"Cc1c2oc3c(C)ccc(C(=O)N[C@@H]4C(=O)N[C@H](C(C)C)C(=O)N5CCC[C@H]5C(=O)N(C)CC(=O)N(C)[C@@H](C(C)C)C(=O)O[C@@H]4C)c3nc-2c(C(=O)N[C@@H]2C(=O)N[C@H](C(C)C)C(=O)N3CCC[C@H]3C(=O)N(C)CC(=O)N(C)[C@@H](C(C)C)C(=O)O[C@@H]2C)c(N)c1=O [UM0141835:01, Actinomycin D] (I: T[dV]P[Sar][NMeV] / II: T[dV]P[Sar][NMeV]; ester I:1-I:C, II:1-II:C; linker I:N-II:N via Actinocin(9to1))",21.28%
4,"COc1cc(-n2c(=S)[nH]c3ccccc3c2=O)c(Cl)cc1Cl [UM0141840:01, Mdivi 1]",54.95%
5,"O=C1C2CCN(CC2)C1(CO)CO [UM0141841:01, PRIMA-1]",1.308%
6,"COCC1(CO)C(=O)C2CCN1CC2 (centres unmarked) [UM0141842:01, PRIMA-1MET]",2.921%
7,"BrC1C(Br)C(Br)C(Br)C(Br)C1Br (centres unmarked) [UM0141851:01, 1,2,3,4,5,6-Hexabromocyclohexane]",6.156%
